# Source: patent publication US11344521B2, “Methods for the treatment of leptomeningeal disease” (priority 2017, dated 2022)
# Experiment: Solubility in water
# Assay type: physicochemical
compound,measurement,value
"NC(=O)C(CCC(=O)[O-])NC(=O)Cc1ccccc1.[Na+] (stereo not shown) [Iso-PG, phenylacetylisoglutaminate sodium]",solubility in water,soluble in water
